One data set deals with male KK-A^y mice. The experiment in a line: Hypoglycemic and hypolipidemic activity in spontaneously diabetic KK-Ay mice. It is filed as in vivo. The note with it: 10 mg/kg/day orally for 4 consecutive days, plasma 24 hours after final administration, non-fasting, vs control group. On the procedure:
Blood was drawn under a non-fasting state from the tail vein of male KK-A^y mice, and the glucose and triglyceride levels of the plasma were measured using commercially available assay kits (glucose CII-test WAKO and triglyceride G-test WAKO, Wako Pure Chemical Industries, Ltd.). The mice were grouped (5 mice per group) into a control group and an administration group, such that the mean and standard deviation of the body weight and the plasma glucose and plasma triglyceride levels in each group were nearly the same. The test compounds (compounds of Examples 1, 2, 4, 8, 20, 22, 24, 27, 30, 33, 36, 37, 40, 45, 47, 52, 56, 58 and 64) were suspended in 5% gum arabic solution and administered (10 mg/kg/day) orally to the administration group for 4 consecutive days. The 5% gumarabic solution was orally administered to the control group. Blood was drawn under a non-fasting state from the tail vein 24 hours after the final administration and the glucose and triglyceride levels of the plasma were measured. The decrease in the plasma glucose and triglyceride levels was calculated from the following formula. Decrease (%)=[(mean of control group−mean of test compound administration group)/mean of control group]×100 Results

The test system of the next data set is male db/db mice. The experiment in a line: Hypoglycemic and hypolipidemic activity in db/db mice. The class given is in vivo. The note with it: 3 mg/kg/day orally for 2 consecutive weeks, plasma 24 hours after final administration, non-fasting, vs control group. As to the method: Using db/db mice genetically showing high plasma glucose, hypertriglyceridemia, insulin resistance and obesity, the pharmacological activity of the test compounds of Examples 1, 2 and 20 was examined.
Blood was drawn under a non-fasting state from the tail vein of male db/db mice, the glucose level and triglyceride level of the plasma were measured using commercially available assay kits (glucose CII-test WAKO and triglyceride G-test WAKO, Wako Pure Chemical Industries, Ltd.). The mice were grouped (6 mice per group) into a control group and test compound (compounds of Examples 1, 2 and 20) administration group (3 mg/kg/day), such that the mean and standard deviation of the body weight and the plasma glucose and plasma triglyceride levels in each group were nearly the same. The test compound was suspended in 0.5% methylcellulose solution and administered orally for 2 consecutive weeks from the next day. The 0.5% methylcellulose solution was orally administered to the control group. Blood was drawn under a non-fasting state from the tail vein 24 hours after the final administration and the glucose and triglyceride levels of the plasma were measured. The decrease in the plasma glucose and triglyceride levels was calculated from the following formula. Decrease (%)=[(mean of control group−mean of test compound administration group)/mean of control group]×100 Results

A short description of data set [1]: Solubility of the compound in water (buffer pH 7.0). It is filed as physicochemical. As to the method:
The pulverized test compound (compounds of Examples 2, 20, 22, 24, 27, 30, 40 or 65, 25 mg) was added to a buffer (1.0 ml, pH 7.0) and the mixture was shaken at 25° C. for 1 hr and passed through a membrane filter. The concentration of the test compound in the filtrate was measured by high performance liquid chromatography.

A further data set deals with female Wistar rats. In words: Toxicity by repeat administration in Wistar rats. It is filed as in vivo. The note with it: 30 and 100 mg/kg/day orally for 2 consecutive weeks, vs control group. On the procedure:
Using 6-week-old female Wistar rats, toxicity by repeat administration was examined.
The rats were grouped (6 rats per group) into a control group and test compound (compounds of Examples 2 and 20) administration groups (30 and 100 mg/kg/day), such that the mean and the standard deviation of the body weight of the rats were nearly the same. The test compound was suspended in 0.5% methylcellulose solution and administered orally for 2 consecutive weeks from the next day. The 0.5% methylcellulose solution was orally administered to the control group. The rats were fasted for 16 hr from the last day of administration, anesthetized by intraperitoneal administration of pentobarbital sodium (50 mg/kg) 24 hr after the final administration and the blood was drawn. Using EDTA-added blood, hematocrit value and erythrocyte count were measured, and using serum, AST (GOT) and ALT (GPT) were measured. In addition, the white fat around the uterus, and the liver and heart were removed and the wet weights thereof were measured.

For the next data set, the system named is male ICR mice. The experiment in a line: Toxicity by repeat administration in ICR mice. The class given is in vivo. The following applies: 30 and 100 mg/kg/day orally for 2 consecutive weeks, vs control group. As to the method: Using 7-week-old male ICR mice, toxicity by repeat administration was examined.
The mice were grouped (7 mice per group) into a control group and test compound (compounds of Examples 2 and 20) administration groups (30 and 100 mg/kg/day), such that the mean and the standard deviation of the body weight of the mice were nearly the same. The test compound was suspended in 0.5% methylcellulose solution and administered orally for 2 consecutive weeks from the next day. The 0.5% methylcellulose solution was orally administered to the control group. At 24 hours after the final administration, Evans blue (100 μg/mouse) was administered from the tail vein and, 5 min later, the blood was drawn from the orbital venous plexus with anesthesia. Using EDTA-added blood, hematocrit value and erythrocyte count were measured. Using the plasma, Evans blue concentration was measured, from which plasma volume was calculated. The liver and heart were removed and wet weight was measured.

The mark [2] stands for this setting: 25 mg in 1.0 ml buffer pH 7.0, shaken at 25° C. for 1 hr, filtrate by HPLC.

≈ marks a conversion by molar mass, not a printed value.

With `CCC/C=C/c1nc(CCOc2ccc3c(c2)CN(C(=O)C=CCCCC)[C@H](C(=O)[O-])C3)c(C)o1.[Na+]` (stereo in doubt) [Example 1, sodium 2-(2-heptenoyl)-7-[2-(5-methyl-2-(trans-1-penten-1-yl)oxazol-4-yl)ethoxy]-1,2,3,4-tetrahydroisoquinoline-(3S)-carboxylate], the figures for the “Decrease (%) in glucose level” value in the data set on male KK-A^y mice and with male db/db mice were 46.1% and 21.3%, respectively. Besides, the “Decrease (%) in triglyceride level” value in the data set with male KK-A^y mice is recorded as 45.3%; in the data set with male db/db mice, 62.7%.
Usually Solubility stands for the concentration that dissolves in the medium under given conditions. High values mean much dissolved substance, low ones little dissolved substance. For the compound `CC=CC=CC(=O)N1Cc2cc(OCCc3nc(/C=C/CCC)oc3C)ccc2C[C@H]1C(=O)O` (stereo in doubt) [Example 2, 2-(2,4-hexadienoyl)-7-[2-(5-methyl-2-(trans-1-penten-1-yl)oxazol-4-yl)ethoxy]-1,2,3,4-tetrahydroisoquinoline-(3S)-carboxylic acid], in the data set on male KK-A^y mice, the “Decrease (%) in glucose level” value is 40.3% and the “Decrease (%) in triglyceride level” value is given as 40.5%. Further, the “Solubility” value in data set [1] (setting [2]) is 10.0 mg/mL (≈ 21.5 mM). Further, in the data set on female Wistar rats (serum), the “ALT (GPT)” value is recorded as “no significant difference” and the “AST (GOT)” value was “no significant difference”. For the same compound, in the data set on female Wistar rats, the erythrocyte count result was “no significant difference” and the hematocrit value result is given as “no significant difference”. In the data set on female Wistar rats (wet weight), the “weight of the heart” value is on record as “no significant difference”, the “weight of the liver” value is listed as “no significant difference” and the “weight of the white fat around the uterus” value is on record as “no significant difference”. Moreover, in the data set on male ICR mice (calculated from Evans blue concentration), the plasma volume result is recorded as “no significant difference”. Besides, in the data set on male ICR mice, the body weight result is reported as “no significant difference”, the erythrocyte count entry is recorded as “no significant difference” and the hematocrit value result is on record as “no significant difference”. Besides, in the data set on male ICR mice (wet weight), the “weight of the heart” value is listed as “no significant difference” and the “weight of the liver” value is “no significant difference”. Besides, in the data set on male db/db mice, the “Decrease (%) in glucose level” value is on record as 57.2% and the “Decrease (%) in triglyceride level” value came out at 78.1%.
For `CC(C)(C)N.CC=CC=CC(=O)N1Cc2cc(OCCc3nc(/C=C/C4CCCC4)oc3C)ccc2C[C@H]1C(=O)O` (stereo in doubt) [Example 22, tert-butylamine 7-{2-[2-(trans-2-cyclopentylvinyl)-5-methyloxazol-4-yl]ethoxy}-2-(2,4-hexadienoyl)-1,2,3,4-tetrahydroisoquinoline-(3S)-carboxylate], in the data set on male KK-A^y mice, the “Decrease (%) in glucose level” value is 45.3% and the “Decrease (%) in triglyceride level” value stood at 51.4%. In addition, the “Solubility (mg/ml)” value in data set [1] (setting [2]) is 25 or above mg/ml.
In the case of `CC(C)(C)N.CCCCC=CC(=O)N1Cc2cc(OCCc3nc(/C=C/CC(C)C)oc3C)ccc2C[C@H]1C(=O)O` (stereo in doubt) [Example 24, tert-butylamine-2-(2-heptenoyl)-7-{2-[5-methyl-2-(4-methyl-trans-1-penten-1-yl)oxazol-4-yl]ethoxy}-1,2,3,4-tetrahydroisoquinoline-(3S)-carboxylate], in the data set on male KK-A^y mice, the “Decrease (%) in glucose level” value is listed as 52.8% and the “Decrease (%) in triglyceride level” value came to 50.7%. Further, the “Solubility” value in data set [1] (pH 7) came out at 18.7 mg/mL.
As for `CC(C)(C)N.CC=CC=CC(=O)N1Cc2cc(OCCc3nc(/C=C/CCCC)oc3C)ccc2C[C@H]1C(=O)O` (stereo in doubt) [Example 27, tert-butylamine 2-(2,4-hexadienoyl)-7-{2-[2-(trans-1-hexen-1-yl)-5-methyloxazol-4-yl]ethoxy}-1,2,3,4-tetrahydroisoquinoline-(3S)-carboxylate], in the data set on male KK-A^y mice, the “Decrease (%) in glucose level” value stood at 53.4% and the “Decrease (%) in triglyceride level” value was 36.5%. In data set [1] (setting [2]), the “Solubility (mg/ml)” value is 25 or above mg/ml.
For the compound `CC(C)(C)N.CC=CC=CC(=O)N1Cc2cc(OCCc3nc(/C=C/CCC(C)C)oc3C)ccc2C[C@H]1C(=O)O` (stereo in doubt) [Example 30, tert-butylamine 2-(2,4-hexadienoyl)-7-{2-[5-methyl-2-(5-methyl-trans-1-hexen-1-yl)oxazol-4-yl]ethoxy}-1,2,3,4-tetrahydroisoquinoline-(3S)-carboxylate], in the data set on male KK-A^y mice, the “Decrease (%) in glucose level” value was 55.4% and the “Decrease (%) in triglyceride level” value is 57.0%. Also, the “Solubility” value in data set [1] (setting [2]) stood at 17.3 mg/mL.
As for `CC(C)(C)N.CC=CC=CC(=O)N1Cc2cc(OCCc3nc(/C=C/C4CCCCC4)oc3C)ccc2C[C@H]1C(=O)O` (stereo in doubt) [Example 40], in the data set with male KK-A^y mice, the “Decrease (%) in glucose level” value amounted to 54.3% and the “Decrease (%) in triglyceride level” value worked out at 37.0%. In data set [1] (setting [2]), the “Solubility” value was 18.7 mg/mL.
For `C=CCCN1Cc2cc(OCCc3nc(/C=C/CC(C)C)oc3C)ccc2C[C@H]1C(=O)O` (stereo in doubt) [Example 64, 2-(3-butenyl)-7-{2-[5-methyl-2-(4-methyl-trans-1-penten-1-yl)oxazol-4-yl]ethoxy}-1,2,3,4-tetrahydroisoquinoline-(3S)-carboxylic acid], in the data set with male KK-A^y mice, the “Decrease (%) in glucose level” value is 29.4% and the “Decrease (%) in triglyceride level” value was determined as 25.1%.
Take `CC(C)(C)N.CC=CC=CC(=O)N1Cc2cc(OCCc3nc(/C=C/COC)oc3C)ccc2C[C@H]1C(=O)O` (stereo in doubt) [Example 65]: the “Solubility” value in data set [1] (setting [2]) was 20.5 mg/mL.
On to `Cc1oc(C=Cc2ccccc2)nc1CCOc1ccc2c(c1)CN(C(=O)C(F)(F)C(F)(F)F)[C@H](C(=O)O)C2` [Example 8, 7-[2-(5-methyl-2-styryloxazol-4-yl)ethoxy]-2-pentafluoropropionyl-1,2,3,4-tetrahydroisoquinoline-(3S)-carboxylic acid], for which, in the data set with male KK-A^y mice, the “Decrease (%) in glucose level” value is 57.2% and the “Decrease (%) in triglyceride level” value is on record as 71.1%.
